Results published in paper PMC7506137, “Selective Phosphodiesterase 1 Inhibitor BTTQ Reduces Blood Pressure in Spontaneously Hypertensive and Dahl Salt Sensitive Rats: Role of Peripheral Vasodilation” (Frontiers in Physiology, 2020).
Several values for one entry are separate records, joined by “and”; a condition that tells them apart may be missing. Identical values can stand only once. Like-named read-outs stand apart in the source and are kept apart here.

Assay: Plasma exposure (dried blood spot) after single oral dose
Assay type: in vivo
Settings: rat; for concentration at 5 h / concentration at 6 h / concentration at 24 h: Sprague Dawley, po, 3 mg/kg, oral 3 mg/kg; for concentration at 24 h / Unbound Concentration, individual animals / Concentration, individual animals: 24 h
Protocol: Male Sprague Dawley rats at 6 to 7 weeks were dosed orally by p.o. gavage with different doses of BTTQ formulated in 1% hydroxyethlycellulose (Dow Corning, Midland, MI, United States) (w/v), 0.25% polysorbate 80 (Sigma-Aldrich, St. Louis, MO, United States) (v/v), and 0.05% antifoam (v/v; Dow Corning, Midland, MI, United States) in purified water. Following dosing, ear temperature was measured by using a k-type thermocouple probe digital thermometer (Cole Parmer) every hour for 6 h and then at 24 h. Blood samples for plasma exposure measurement were obtained at the same time. Blood was collected via a tail snip directly into a 20-μL EDTA-coated capillary and immediately spotted onto a Whatman DMPK-C DBS card (GE Healthcare Bio-Sciences). Tail snips were performed by removing approximately 1 mm of the tail by using a scalpel. Blood flow was initiated by gentle squeezing of the tail. No analgesia or anesthesia was used during blood collections. A single sample and spot were collected per time point. The DBS cards were allowed to dry for approximately 2 h at room temperature, after which the cards were placed in a zip-top bag, stored, and shipped at ambient temperature.

concentration at 5 h (male, whole blood (dried blood spot), 5 h, dried blood spot, read-out: Concentration, Mean): 2170 nM
concentration at 5 h (male, whole blood (dried blood spot), 5 h, dried blood spot, read-out: Concentration, individual animals): 2680 nM
concentration at 6 h (male, whole blood (dried blood spot), 6 h, FU 0.053, read-out: Unbound Concentration, Mean): 93.5 nM
concentration at 6 h (male, whole blood (dried blood spot), 6 h, FU 0.053, read-out: Unbound Concentration, individual animals): 98.1 nM
concentration at 6 h (male, whole blood (dried blood spot), 6 h, dried blood spot, read-out: Concentration, Mean): 1760 nM
concentration at 6 h (male, whole blood (dried blood spot), 6 h, dried blood spot, read-out: Concentration, individual animals): 1850 nM
concentration at 24 h (male, whole blood (dried blood spot), FU 0.053, read-out: Unbound Concentration, Mean): 5 nM
concentration at 24 h (male, whole blood (dried blood spot), dried blood spot, read-out: Concentration, Mean): 94.2 nM
half-life (male, whole blood (dried blood spot), after oral administration, Sprague Dawley rats): ~4 h
concentration at 4 h (oral 0.03 mg/kg, 5 h, FU 0.053, 0.03 mg/kg, read-out: Unbound Concentration, individual animals): 1.35 nM and 1.39 nM (2×) and 1.51 nM
Unbound Concentration, individual animals (oral 0.03 mg/kg, FU 0.053): BQL
Concentration, individual animals (oral 0.03 mg/kg, dried blood spot): BQL
concentration at 4 h (oral 0.1 mg/kg, 1 h, dried blood spot, 0.1 mg/kg, read-out: Concentration, individual animals): 229 nM and 172 nM and 180 nM and 175 nM
concentration at 4 h (oral 0.1 mg/kg, 2 h, dried blood spot, 0.1 mg/kg, read-out: Concentration, individual animals): 193 nM and 190 nM and 168 nM and 174 nM
concentration at 4 h (oral 0.1 mg/kg, 3 h, dried blood spot, 0.1 mg/kg, read-out: Concentration, individual animals): 169 nM and 187 nM and 144 nM and 179 nM
concentration at 4 h (oral 0.1 mg/kg, 4 h, dried blood spot, 0.1 mg/kg, read-out: Concentration, individual animals): 133 nM and 136 nM and 88.1 nM and 146 nM
Unbound Concentration, individual animals (oral 0.1 mg/kg, FU 0.053, 0.1 mg/kg): BQL
Concentration, individual animals (oral 0.1 mg/kg, dried blood spot, 0.1 mg/kg): BQL
concentration at 4 h (oral 0.3 mg/kg, 1 h, dried blood spot, 0.3 mg/kg, read-out: Concentration, individual animals): 362 nM and 593 nM and 638 nM and 566 nM
concentration at 4 h (oral 0.3 mg/kg, 2 h, FU 0.053, 0.3 mg/kg, read-out: Unbound Concentration, individual animals): 25.4 nM and 27.8 nM and 21 nM and 25 nM
concentration at 4 h (oral 0.3 mg/kg, 2 h, dried blood spot, 0.3 mg/kg, read-out: Concentration, individual animals): 479 nM and 525 nM and 397 nM and 472 nM
concentration at 4 h (oral 0.3 mg/kg, 3 h, dried blood spot, 0.3 mg/kg, read-out: Concentration, individual animals): 280 nM and 328 nM and 323 nM and 363 nM
concentration at 4 h (oral 0.3 mg/kg, 4 h, FU 0.053, 0.3 mg/kg, read-out: Unbound Concentration, individual animals): 12.1 nM (2×) and 11.3 nM and 11.1 nM
concentration at 4 h (oral 0.3 mg/kg, 4 h, dried blood spot, 0.3 mg/kg, read-out: Concentration, individual animals): 229 nM (2×) and 213 nM and 210 nM
concentration at 4 h (oral 0.3 mg/kg, 5 h, FU 0.053, 0.3 mg/kg, read-out: Unbound Concentration, individual animals): 8 nM
Unbound Concentration, individual animals (oral 0.3 mg/kg, FU 0.053): BQL
Concentration, individual animals (oral 0.3 mg/kg, dried blood spot): BQL
SMILES: O=c1c2nnc(C3(C4CC4)CC3)n2c2c(n1CC1CC1)CCCC2 [BTTQ, 1-[1,1′-bi(cyclopropyl)-1-yl]-5-(cyclopropylmethyl)-6,7,8,9-tetrahydro[1,2,4]triazolo[4,3-A]quinoxaline-4(5H)-one]
concentration at 4 h (oral 0.03 mg/kg, 5 h, dried blood spot, 0.03 mg/kg, read-out: Concentration, individual animals): 25.4 nM and 26.3 nM and 28.4 nM and 26.2 nM
concentration at 4 h (oral 0.03 mg/kg, 6 h, FU 0.053, 0.03 mg/kg, read-out: Unbound Concentration, individual animals): 1.93 nM and 0.917 nM and 0.906 nM and 0.938 nM and 1.13 nM
concentration at 4 h (oral 0.03 mg/kg, 6 h, dried blood spot, 0.03 mg/kg, read-out: Concentration, individual animals): 36.4 nM and 17.3 nM and 17.1 nM and 17.7 nM and 21.4 nM
concentration at 4 h (oral 0.1 mg/kg, 1 h, FU 0.053, 0.1 mg/kg, read-out: Unbound Concentration, individual animals): 12.1 nM and 9.12 nM and 9.54 nM and 9.28 nM
concentration at 4 h (oral 0.1 mg/kg, 2 h, FU 0.053, 0.1 mg/kg, read-out: Unbound Concentration, individual animals): 10.2 nM and 10.1 nM and 8.9 nM and 9.22 nM
concentration at 4 h (oral 0.1 mg/kg, 3 h, FU 0.053, 0.1 mg/kg, read-out: Unbound Concentration, individual animals): 8.96 nM and 9.91 nM and 7.63 nM and 9.49 nM
concentration at 4 h (oral 0.1 mg/kg, 4 h, FU 0.053, 0.1 mg/kg, read-out: Unbound Concentration, individual animals): 7.05 nM and 7.21 nM and 4.67 nM and 7.74 nM
concentration at 4 h (oral 0.1 mg/kg, 5 h, FU 0.053, 0.1 mg/kg, read-out: Unbound Concentration, individual animals): 5.35 nM and 4.7 nM and 3.91 nM and 5.72 nM
concentration at 4 h (oral 0.1 mg/kg, 5 h, dried blood spot, 0.1 mg/kg, read-out: Concentration, individual animals): 101 nM and 88.7 nM and 73.7 nM and 108 nM
concentration at 4 h (oral 0.1 mg/kg, 6 h, FU 0.053, 0.1 mg/kg, read-out: Unbound Concentration, individual animals): 5.83 nM and 4.21 nM and 3.48 nM and 4.92 nM
concentration at 4 h (oral 0.1 mg/kg, 6 h, dried blood spot, 0.1 mg/kg, read-out: Concentration, individual animals): 110 nM and 79.5 nM and 65.7 nM and 92.8 nM
concentration at 4 h (oral 0.3 mg/kg, 1 h, FU 0.053, 0.3 mg/kg, read-out: Unbound Concentration, individual animals): 19.2 nM and 31.4 nM and 33.8 nM and 30 nM
concentration at 4 h (oral 0.3 mg/kg, 3 h, FU 0.053, 0.3 mg/kg, read-out: Unbound Concentration, individual animals): 14.8 nM and 17.4 nM and 17.1 nM and 19.2 nM
